Where “and” joins values, the source holds several entries; their conditions need not be identical. Equal values may be shown once.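 Growth conditions: 96-well plates. Treatment: test compound, 48 hours, 5 concentrations. Analysis: linear interpolation between bracketing concentrations; unreached endpoints set to highest concentration. GI50 marks 50% less growth. TGI: concentration producing complete growth inhibition.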

Among the test systems are HOP-92 NSCLC; SNB-19 CNS; SF-539 CNS; UACC-62 melanoma; PC-3 prostate; COLO 205 colon; SW-620 colon; SN12C renal; OVCAR-5 ovarian; OVCAR-3 ovarian.
Assay in all cases: NCI-60 cell line screen, 48 h

As for `O=C(NCc1ccncc1)C12CC3CC(C1)CC(c1ccc(Cl)cc1)(C3)C2`, the GI50 is 12 µM in the assay with HOP-92 NSCLC; 13.5 µM in the assay with SNB-19 CNS; 14.1 µM in the assay on SF-539 CNS; 5.02 µM in the assay with UACC-62 melanoma; 8.86 µM in the assay on PC-3 prostate; 12.7 µM in the assay on COLO 205 colon. For the same molecule, the GI50 in the assay with SW-620 colon was 13.7 µM; with SN12C renal it was 13.4 µM; in the assay with OVCAR-5 ovarian, 14 µM; in the assay with OVCAR-3 ovarian, 13.2 µM. Further, the TGI turned out to be 25.2 µM in the assay on HOP-92 NSCLC; 27.8 µM in the assay with SNB-19 CNS; 28.1 µM in the assay on SF-539 CNS; 18.7 µM with UACC-62 melanoma; 23.1 µM with PC-3 prostate; 27.1 µM with COLO 205 colon. Further, the TGI with SW-620 colon came out at 28.5 µM; with SN12C renal, 27.3 µM; in the assay with OVCAR-5 ovarian, 28.7 µM; in the assay on OVCAR-3 ovarian, 27.3 µM.
As for `OCC1OC(n2cnc3c(Cl)nc(Cl)cc32)C(O)C1O` (configuration not stated), the GI50 with HOP-92 NSCLC was 37.4 µM; in the assay with SNB-19 CNS, more than 100 µM; with SF-539 CNS, more than 100 µM; with UACC-62 melanoma, more than 100 µM; with PC-3 prostate, more than 100 µM; in the assay on COLO 205 colon it was more than 100 µM. The GI50 with SW-620 colon, in the assay on SN12C renal, in the assay with OVCAR-5 ovarian and with OVCAR-3 ovarian was more than 100 µM throughout. Moreover, the TGI with HOP-92 NSCLC, in the assay with SNB-19 CNS, in the assay with SF-539 CNS, in the assay on UACC-62 melanoma, in the assay on PC-3 prostate and in the assay on COLO 205 colon was more than 100 µM throughout. In addition, the TGI with SW-620 colon, in the assay on SN12C renal, with OVCAR-5 ovarian and with OVCAR-3 ovarian was more than 100 µM each time.
For the molecule `C=C1C(=O)O[C@@H]2C1C[C@@H](O)C(=C)CC/C=C(\C)CCC[C@H](C)[C@H]2OC(C)=O` (some centres not stated), the GI50 is 1.09 µM in the assay with HOP-92 NSCLC; 27.1 µM in the assay on SNB-19 CNS; 12.8 µM in the assay on SF-539 CNS; 7.45 µM with UACC-62 melanoma; 6.1 µM with PC-3 prostate; 2.93 µM in the assay on COLO 205 colon. Besides, the GI50 in the assay with SW-620 colon was 3.81 µM; in the assay with SN12C renal, 3.5 µM; in the assay on OVCAR-5 ovarian, 10.3 µM; with OVCAR-3 ovarian, 3.38 µM. Further, the TGI with HOP-92 NSCLC is 3.76 µM; in the assay with SNB-19 CNS, more than 100 µM; in the assay with SF-539 CNS, 26.3 µM; in the assay with UACC-62 melanoma, 21.7 µM; in the assay with PC-3 prostate, 22.9 µM; in the assay with COLO 205 colon, more than 100 µM. The TGI in the assay on SW-620 colon was found to be 13.6 µM; with SN12C renal, 15.3 µM; in the assay on OVCAR-5 ovarian, 22.4 µM; in the assay with OVCAR-3 ovarian it was 12.6 µM.
Turning to `CCc1ccc2c(c1)N(CCO)C1=C(C(=O)OC1)C2c1cccc(Cl)c1` (configuration not stated), the GI50 in the assay with HOP-92 NSCLC is 12.7 µM; in the assay on SNB-19 CNS, 1.33 µM; in the assay with SF-539 CNS it was 0.488 µM; with UACC-62 melanoma, 0.537 µM; in the assay on PC-3 prostate, 0.687 µM; in the assay with COLO 205 colon, 0.522 µM. The GI50 in the assay on SW-620 colon was 0.416 µM; with SN12C renal, 2.03 µM; in the assay with OVCAR-5 ovarian, 4.61 µM; in the assay with OVCAR-3 ovarian it was 0.364 µM. Further, the TGI in the assay on HOP-92 NSCLC was 27.8 µM; in the assay on SNB-19 CNS it was 25.1 µM; in the assay on SF-539 CNS, 11.4 µM; with UACC-62 melanoma, 18.5 µM; in the assay on PC-3 prostate, 23.4 µM; in the assay with COLO 205 colon it was 2.63 µM. Further, the TGI came out at 21.7 µM in the assay with SW-620 colon, 19 µM in the assay on SN12C renal, 23.4 µM with OVCAR-5 ovarian and 1.68 µM in the assay with OVCAR-3 ovarian.
For `S=C(N/N=C(/c1ccccc1)c1ccccn1)N1CCCCCC1`, the TGI is 1.97 µM with HOP-92 NSCLC; 2.27 µM and 2.06 µM in the assay with SNB-19 CNS; 1.43 µM and 1.63 µM in the assay on SF-539 CNS; 3.73 µM and 0.78 µM in the assay with UACC-62 melanoma; 1.37 µM and 1.52 µM in the assay on PC-3 prostate; 1.43 µM and 1.68 µM in the assay on SW-620 colon. Also, the TGI was 1.91 µM with SN12C renal; 2.11 µM in the assay with OVCAR-5 ovarian; 1.76 µM and 1.23 µM with OVCAR-3 ovarian. The GI50 with SNB-19 CNS was 0.274 µM; in the assay on SF-539 CNS it was 0.329 µM; with UACC-62 melanoma, 0.39 µM; with PC-3 prostate it was less than 0.001 µM; with COLO 205 colon, less than 0.001 µM; in the assay on SW-620 colon, less than 0.001 µM. For the same molecule, the GI50 with OVCAR-5 ovarian and with OVCAR-3 ovarian was less than 0.001 µM in each case.
With `CCCCN(CCCC)CCCn1c(=O)c2c3ccccc3n(C)c2n2nnc(-c3ccccc3)c12`, the GI50 with HOP-92 NSCLC is 18.5 µM; with SNB-19 CNS it was more than 100 µM; in the assay with SF-539 CNS, 65.3 µM; in the assay with UACC-62 melanoma it was 22.4 µM; with PC-3 prostate, 18.2 µM; in the assay on COLO 205 colon, 5.01 µM. The GI50 is 26.5 µM with SW-620 colon, 19.4 µM with SN12C renal, 22.3 µM in the assay with OVCAR-5 ovarian and 48.6 µM with OVCAR-3 ovarian. In addition, the TGI with HOP-92 NSCLC is 44.7 µM; in the assay on SNB-19 CNS it was more than 100 µM; in the assay with SF-539 CNS, more than 100 µM; with UACC-62 melanoma, 84.4 µM; in the assay with PC-3 prostate, 47.4 µM; in the assay on COLO 205 colon it was 62.9 µM. Also, the TGI was more than 100 µM in the assay on SW-620 colon, 94.8 µM with SN12C renal, more than 100 µM in the assay on OVCAR-5 ovarian and more than 100 µM with OVCAR-3 ovarian.

Values taken from PubChem BioAssay (NCI).
